# Test results as given in US20250276031A1, “PRODRUGS AS SELECTIVE ANTIBIOTICS AGAINST COLIBACTIN-PRODUCING E. COLI” (New York University in Abu Dhabi Corporation, priority 2024, published 2025).
# What was measured:
# [1] = test system: E. coli expressing the ClbP protease; assay: Growth curves with PXCNA; assay type: cell-based; conditions: crude extract, 10, 25, 50 mg/L; IPTG induced; 22° C., 24 hrs, OD600
# Description: Growth curves made using PXCNA. Briefly, a single colony from E. coli strain C41(DE3)_ΔacrABpET-29b clbP strain was inoculated into LB medium supplemented with kanamycin (50 μg/ml). This culture was grown overnight at 37° C. while shaking at 200 RPM. 1:100 dilution of overnight culture into fresh LB medium supplemented with kanamycin (50 μg/ml) was performed. Samples were induced with IPTG (0.5 mM). A crude extract of PXCNA prepared in methanol (1 mg/ml). The final concentration in samples was 50 mg/L, 25 mg/L and 10 mg/L. Samples were incubated at 22° C. for 24 hrs and OD600 was measured using TecanSpark.
# [2] = test system: E. coli C41 DE3 pet29b_clbP pSEVA631_mGFP and E. coli C41 DE3 pet29b pSEVA_mScarlet-i; assay: Co-culture competition assay with PXCNA (mGFP / mScarlet-i fluorescence, OD600); assay type: cell-based
# Description: PXCNA activity was measured via fluorescence (see FIGS. 18 and 19).
# A co-culture assay was performed. Overnight cultures of E. coli C41 DE3 pet29b_cIbP pSEVA631_mGFP and E. coli C41 DE3 pet29b pSEVA_mScarlet-i were prepared separately each from a single colony. Then 1:100 dilution of each culture into the same LB media well supplemented with kanamycin (50 μg/ml) and gentamycin (15 μg/ml) was performed. […] Samples were fed with PXCNA with a final concentration of 25 mg/L.
# [3] = test system: Escherichia coli ribosome; conditions: comparison value, no own experiment described; read-out: IC50 of chloramphenicol given for comparison; cited from earlier work
Compound,selective killing of ClbP expressing E. coli [1],"mGFP and mScarlet-i fluorescence in co-culture ([2]; PXCNA 25 mg/L, vanillic acid, with or without IPTG)","OD600 growth of E. coli C41 DE3 pet29b_clbP pSEVA631_mGFP ([2]; only vanillic acid and PXCNA added, no IPTG)",IC50 [3] [µM]
"CC(C)CCCC(=O)N[C@H](CC(N)=O)C(=O)N[C@@H](CCCN=C(N)N)[C@H](O)[C@H](O)C(=O)N[C@@H](CC(C)C)[C@@H]1Cc2cccc(O)c2C(=O)O1 [PXCNA, prexenocoumacin]",kills selectively E. coli expressing the ClbP protease,low level of fluorescence observed for both,growth did not appear inhibited,–
O=C(N[C@H](CO)[C@H](O)c1ccc([N+](=O)[O-])cc1)C(Cl)Cl [chloramphenicol],–,–,–,2.8
